Laboratory results taken from publication PMC3723905, “Glycogen Phosphorylase Inhibitor N-(3,5-Dimethyl-Benzoyl)-N’-(β-D-Glucopyranosyl)Urea Improves Glucose Tolerance under Normoglycemic and Diabetic Conditions and Rearranges Hepatic Metabolism” (PLoS ONE, 2013).

Target: T1, rabbit muscle glycogen phosphorylase (Oryctolagus cuniculus, UniProt P00489)
T1 construct: gene PYGM
T1 sequence (P00489 2-843): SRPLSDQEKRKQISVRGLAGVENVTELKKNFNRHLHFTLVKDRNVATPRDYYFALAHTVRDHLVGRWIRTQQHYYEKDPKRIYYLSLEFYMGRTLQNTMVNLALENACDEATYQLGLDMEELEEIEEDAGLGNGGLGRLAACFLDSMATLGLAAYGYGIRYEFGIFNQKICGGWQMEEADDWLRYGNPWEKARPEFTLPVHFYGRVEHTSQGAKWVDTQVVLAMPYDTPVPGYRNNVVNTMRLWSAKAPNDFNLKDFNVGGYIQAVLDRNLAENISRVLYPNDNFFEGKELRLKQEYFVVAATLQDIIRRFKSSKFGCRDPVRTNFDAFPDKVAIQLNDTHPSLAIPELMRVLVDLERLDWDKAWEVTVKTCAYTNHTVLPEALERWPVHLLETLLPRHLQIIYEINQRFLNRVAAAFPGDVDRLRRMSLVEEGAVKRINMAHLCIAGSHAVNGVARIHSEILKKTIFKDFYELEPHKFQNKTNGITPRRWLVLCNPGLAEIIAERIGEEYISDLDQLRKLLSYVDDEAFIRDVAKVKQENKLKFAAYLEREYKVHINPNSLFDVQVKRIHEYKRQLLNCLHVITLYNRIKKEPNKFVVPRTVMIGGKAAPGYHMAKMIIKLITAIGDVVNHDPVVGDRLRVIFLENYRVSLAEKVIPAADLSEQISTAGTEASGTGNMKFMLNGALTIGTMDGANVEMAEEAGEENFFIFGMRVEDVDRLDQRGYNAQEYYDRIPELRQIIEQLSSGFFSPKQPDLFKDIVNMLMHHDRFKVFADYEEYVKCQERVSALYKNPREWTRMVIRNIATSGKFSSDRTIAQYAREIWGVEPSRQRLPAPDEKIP
Assay: enzyme kinetics on purified rabbit muscle glycogen phosphorylase
Assay type: biochemical

Cc1cc(C)cc(C(=O)NC(=O)N[C@@H]2O[C@H](CO)[C@@H](O)[C@H](O)[C@H]2O)c1 [compound 4, N-(3,5-dimethyl-benzoyl)-N’-(β-D-glucopyranosyl)urea]
Ki: 930 ± 50 nM
